This experiment concerns the target T1, PPARα (Homo sapiens, UniProt Q07869, I272F).
T1 construct: gene PPARA; hPPARα LBD
T1 sequence (Q07869 199-468 I272F limits assumed): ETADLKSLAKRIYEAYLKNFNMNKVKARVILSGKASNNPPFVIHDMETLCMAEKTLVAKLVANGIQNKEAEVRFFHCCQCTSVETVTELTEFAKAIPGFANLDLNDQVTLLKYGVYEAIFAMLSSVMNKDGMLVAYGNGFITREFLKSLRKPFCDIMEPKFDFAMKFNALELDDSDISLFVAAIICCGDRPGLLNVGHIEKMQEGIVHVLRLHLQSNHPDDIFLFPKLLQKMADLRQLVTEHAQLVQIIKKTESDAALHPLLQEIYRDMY
The experiment is described as follows: transactivation reporter assay at […]. The format is cell-based. Background: A reporter such as luciferase makes a cellular process visible.

This is an account of results in publication PMC7203124, “Structural Basis for PPARα Activation by 1H-pyrazolo-[3,4-b]pyridine Derivatives” (Scientific Reports, 2020).

On to `CC(C)(Oc1ccc(C(=O)c2ccc(Cl)cc2)cc1)C(=O)O` [fenofibric acid], for which the “transactivation reporter assay at 10 μM” value is “while fenofibric acid showed comparable activity between WT and Ile272Phe”.
